According to US9587220B2, “Method for inducing cardiac differentiation of pluripotent stem cell” (Kyoto University, priority 2012, dated 2017):

Experiments:
IMR90-1 hiPSCs [1] = assay: Cardiac differentiation with BIO and CHIR99021 (Days 0-3) followed by WNT inhibitors, serum-free or serum medium; assay type: cell-based, human
Description: After pre-culture in Petri dishes as described above, cell aggregates were attached to culture dishes coated with gelatin (Sigma G2625) or human laminin 211 (BioLamina, Sweden) at 3-10×10^5 cells cm^-2, in serum-free cardiac differentiation medium: IMDM (Sigma) containing 1% MEM non-essential amino acid solution (Sigma), 1% Penicillin-Streptomycin (Gibco), 2 mM L-glutamine (Sigma), 0.5 mM L-carnitine (Sigma), 0.001% 2-Mercapcoethanol (Gibco), and 1-2% bovine serum albumin (Wako, Japan) or 0.4% human serum albumin (Sigma), with 5 μM CHIR99021 (Axon) and 2 μM BIO (Calbiochem). On Days 3-9, 10 μM KY02111 and/or other WNT inhibitors (XAV939 and/or IWP-2) were added to cell cultures, and the medium was changed every 2 d. On Day 15, the cardiac colonies were incubated with the protease solution for 5-10 min, until all colonies were detached from the bottom of the wells. The cardiac colonies were transferred into 15 ml tubes with cardiac differentiation medium including 0.1% albumin, and precipitated by gravity, the supernatant was removed, and the cardiac colonies were transferred to Ultra-low culture 6-well plates (Corning, YO-01835-24) with cardiac differentiation medium including 0.1% albumin. The floating cardiac colonies were maintained for more than 1 month, and the media were changed every 5 d. Cardiac colonies were dissociated by stirring for 1-2 h at 37° C. with the protease solution described above, cultured for 1 d on cover glasses coated with gelatin (Sigma), and fixed with 4% paraformaldehyde. After permeabilizing with Triton X, the cells were treated with 2% skim milk for 1-2 h, then incubated with primary antibodies for 2 h: NKX2.5 (rabbit polyclonal, 1:250; Abcam), αActinin (mouse monoclonal, 1:800; Sigma), cardiac TnT (mouse monoclonal, 1:100; Santa Cruz Biotechnology), Vimentin (mouse monoclonal, 1:800; Sigma V6630), and HCN4 (mouse monoclonal, 1:400; Abcam). The secondary antibodies used were Alexa546-conjugated anti-mouse IgG, Alexa488-conjugated anti-mouse IgG, and Alexa488-conjugated anti-rabbit IgG (1:1000; all from Molecular Probes, Invitrogen). Nuclei were visualized by DAPI. Images were captured under fluorescent microscopy (Olympus). The number of cTnT, αActinin, NKX2.5, HCN4, and Vimentin-positive cells were counted from three random areas, using the Metamorph imaging system (Molecular Devices). Approximately 1000 DAPI-stained cells were used to calculate the proportion of immunopositive cells (the number of immunopositive cells divided by the number of DAPI-stained cells). […] Cells were analyzed using a FACS CantoII flow cytometer (BD Biosciences). Data was analyzed using […] software (BD Biosciences).

IMR90-1 hiPSCs [2] = assay: Number of beating colonies and total number of cardiomyocytes per well (WNT inhibitor combinations); assay type: cell-based, human; details: total cell number x cTnT-positive ratio, FIG. 3e

Q: Which results are given for `COc1ccc(CCC(=O)Nc2nc3ccc(Cl)cc3s2)cc1OC` [KY02111, 2-(3-(3,4-dimethoxyphenyl)propanamide)-6-chlorobenzothiazole]?
A: number of beating colonies and total number of cardiomyocytes, defined medium (Alb) versus serum-containing medium (FBS) (IMR90-1 hiPSCs [1]; FIG. 4e): increased more in defined medium (Alb); proportion of cTnT-positive cells by immunostaining (IMR90-1 hiPSCs [1]; albumin (serum-free)): 93.3%±4.4; differentiation efficiency (cTnT-positive cells) by FACS (IMR90-1 hiPSCs [1]; cytokine- and serum-free conditions): 90.2%; differentiation efficiency (cTnT-positive cells) (IMR90-1 hiPSCs [1]; with serum (FBS)): 83.7%±8.0; number of cardiomyocytes produced relative to the control (IMR90-1 hiPSCs [2]): 80 fold
